Assay results: patent US20240190880A1 (THE REGENTS OF THE UNIVERSITY OF MICHIGAN, priority 2021, published 2024)
Read-outs that look alike come from different tables or passages of the source.

Molecular target: T1, ER (Homo sapiens, UniProt P03372)
T1 construct: host or cells: T47D and MCF7 human breast cancer cells
T1 sequence (P03372 1-595): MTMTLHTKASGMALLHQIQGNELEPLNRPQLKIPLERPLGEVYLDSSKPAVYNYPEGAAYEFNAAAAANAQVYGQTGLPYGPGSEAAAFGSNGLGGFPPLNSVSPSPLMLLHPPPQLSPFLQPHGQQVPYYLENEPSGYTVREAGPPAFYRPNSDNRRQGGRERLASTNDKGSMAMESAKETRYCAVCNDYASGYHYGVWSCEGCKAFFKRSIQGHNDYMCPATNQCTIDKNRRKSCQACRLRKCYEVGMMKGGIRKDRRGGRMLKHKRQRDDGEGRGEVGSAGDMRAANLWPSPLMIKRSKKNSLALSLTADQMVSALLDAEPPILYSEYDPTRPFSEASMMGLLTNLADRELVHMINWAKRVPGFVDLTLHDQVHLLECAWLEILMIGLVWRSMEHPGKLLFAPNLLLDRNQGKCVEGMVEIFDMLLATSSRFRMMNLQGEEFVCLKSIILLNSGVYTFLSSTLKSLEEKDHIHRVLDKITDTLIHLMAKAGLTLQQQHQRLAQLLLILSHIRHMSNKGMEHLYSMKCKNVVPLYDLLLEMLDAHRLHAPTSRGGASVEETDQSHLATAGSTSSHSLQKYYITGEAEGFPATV
Assay: ER degradation activity, in-cell western blot analysis in T47D cells
Format: cell-based
How it was run: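 Read-out is near-infrared fluorescence from an in-cell western, expressed as ER percentage relative to untreated and DMSO controls taken as 100%. T47D breast cancer cells received compound for 16 h in 0.5% DMSO.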

[1] = compounds 16 hours, Table A does not say whether T47D or MCF7, read-out: Potency (DC50)
[2] = 16 hours, Table A does not say which cell line (T47D or MCF7), read-out: Potency (DC50)

SMILES | DC50 [1] | DC50 [2]
C[C@@H]1Cc2c([nH]c3ccccc23)[C@@H](c2ncc(C3=CCC(C(=O)N4CCC(N5Cc6cc7c(cc6C5)C(=O)N(C5CCC(=O)NC5=O)C7=O)CC4)CC3)cc2F)N1CC(F)F (stereo partly drawn) [E 399, 6-(1-(4-(6-((1S,3R)-2-(2,2-difluoroethyl)-3-methyl-2,3,4,9-tetrahydro-1H-pyrido[3,4-b]indol-1-yl)-5-fluoropyridin-3-yl)cyclohex-3-ene-1-carbonyl)piperidin-4-yl)-2-(2,6-dioxopiperidin-3-yl)-6,7-dihydropyrrolo[3,4-f]isoindole-1,3(2H,5H)-dione] | > 0.1 µM | 
C[C@@H]1Cc2c([nH]c3ccccc23)[C@@H](c2c(F)cc(N3CCC(N4CC(C(=O)N5Cc6cc7c(cc6C5)C(=O)N(C5CCC(=O)NC5=O)C7)C4)CC3)cc2F)N1CC(F)F (stereo partly drawn) [E 120, 3-(6-(1-(1-(4-((1R,3R)-2-(2,2-difluoroethyl)-3-methyl-2,3,4,9-tetrahydro-1H-pyrido[3,4-b]indol-1-yl)-3,5-difluorophenyl)piperidin-4-yl)azetidine-3-carbonyl)-1-oxo-3,5,6,7-tetrahydropyrrolo[3,4-f]isoindol-2(1H)-yl)piperidine-2,6-dione] |  | 0.01 to 0.1 µM
O=C1CCC(N2C(=O)c3cc4c(cc3C2=O)CN(C2CCN(CC3(F)CN(c5ccc([C@@H]6c7ccc(O)cc7CC[C@@H]6c6ccccc6)cc5)C3)CC2)C4)C(=O)N1 (stereo partly drawn) [E 285, 2-(2,6-dioxopiperidin-3-yl)-6-(1-((3-fluoro-1-(4-((1R,2S)-6-hydroxy-2-phenyl-1,2,3,4-tetrahydronaphthalen-1-yl)phenyl)azetidin-3-yl)methyl)piperidin-4-yl)-6,7-dihydropyrrolo[3,4-f]isoindole-1,3(2H,5H)-dione] |  | > 0.1 µM
O=C1CCC(N2C(=O)c3cc4c(cc3C2=O)CN(CC(=O)N2CCC3(CC2)CCN(c2ccc([C@H]5c6ccc(O)cc6CC[C@H]5c5ccc(F)cc5)cc2)CC3)C4)C(=O)N1 (stereo partly drawn) [E 213, 2-(2,6-dioxopiperidin-3-yl)-6-(2-(9-(4-((1S,2R)-2-(4-fluorophenyl)-6-hydroxy-1,2,3,4-tetrahydronaphthalen-1-yl)phenyl)-3,9-diazaspiro[5.5]undecan-3-yl)-2-oxoethyl)-6,7-dihydropyrrolo[3,4-f]isoindole-1,3(2H,5H)-dione] |  | 0.01 to 0.1 µM
O=C1CCC(N2C(=O)c3cc4c(cc3C2=O)CN(C(=O)C2CCN(C3CCN(c5ccc([C@@H]6c7ccc(O)cc7CC[C@@H]6c6ccc(F)cc6)cc5)CC3)CC2)C4)C(=O)N1 (mixture of isomers) [E 12, Rac-2-(2,6-dioxopiperidin-3-yl)-6-(1′-(4-((1R,2S)-2-(4-fluorophenyl)-6-hydroxy-1,2,3,4-tetrahydronaphthalen-1-yl)phenyl)-[1,4′-bipiperidine]-4-carbonyl)-6,7-dihydropyrrolo[3,4-f]isoindole-1,3(2H,5H)-dione] |  | < 0.01 µM
O=C1CCC(N2C(=O)c3cc4c(cc3C2=O)CN(C2CCC(NCC3CN(c5ccc([C@@H]6c7ccc(O)cc7CC[C@@H]6c6ccccc6)cc5)C3)CC2)C4)C(=O)N1 (stereo partly drawn) [E 339, 2-(2,6-dioxopiperidin-3-yl)-6-(4-(((1-(4-((1R,2S)-6-hydroxy-2-phenyl-1,2,3,4-tetrahydronaphthalen-1-yl)phenyl)azetidin-3-yl)methyl)amino)cyclohexyl)-6,7-dihydropyrrolo[3,4-f]isoindole-1,3(2H,5H)-dione] |  | > 0.1 µM
O=C1CCC(N2C(=O)c3cc4c(cc3C2=O)CN(C2CCN(CC3CCN(c5ccc([C@@H]6c7ccc(O)cc7CC[C@@H]6c6ccccc6)cc5)CC3)CC2)C4)C(=O)N1 (stereo partly drawn) [E 271, 2-(2,6-dioxopiperidin-3-yl)-6-(1-((1-(4-((1R,2S)-6-hydroxy-2-phenyl-1,2,3,4-tetrahydronaphthalen-1-yl)phenyl)piperidin-4-yl)methyl)piperidin-4-yl)-6,7-dihydropyrrolo[3,4-f]isoindole-1,3(2H,5H)-dione] |  | < 0.01 µM
C[C@@H]1Cc2c([nH]c3ccccc23)[C@@H](c2c(F)cc(N3CC(C(=O)N4CCC(CN5Cc6cc7c(cc6C5)C(=O)N(C5CCC(=O)NC5=O)C7=O)CC4)C3)cc2F)N1CC(F)F (stereo partly drawn) [E 216, 6-((1-(1-(4-((1R,3R)-2-(2,2-difluoroethyl)-3-methyl-2,3,4,9-tetrahydro-1H-pyrido[3,4-b]indol-1-yl)-3,5-difluorophenyl)azetidine-3-carbonyl)piperidin-4-yl)methyl)-2-(2,6-dioxopiperidin-3-yl)-6,7-dihydropyrrolo[3,4-f]isoindole-1,3(2H,5H)-dione] |  | < 0.01 µM
O=C1CCC(N2C(=O)c3cc4c(cc3C2=O)CN(CC(=O)N2CCC3(CC2)CCN(c2ccc([C@@H]5c6ccc(O)cc6CC[C@@H]5c5ccccc5)cc2)CC3)C4)C(=O)N1 (mixture of isomers) [E 20, Rac-2-(2,6-dioxopiperidin-3-yl)-6-(2-(9-(4-((1R,2S)-6-hydroxy-2-phenyl-1,2,3,4-tetrahydronaphthalen-1-yl)phenyl)-3,9-diazaspiro[5.5]undecan-3-yl)-2-oxoethyl)-6,7-dihydropyrrolo[3,4-f]isoindole-1,3(2H,5H)-dione] |  | 0.01 to 0.1 µM
C[C@@H]1Cc2c([nH]c3ccccc23)[C@@H](c2c(F)cc(N3CCC4(CN(C(=O)CN5Cc6cc7c(cc6C5)C(=O)N(C5CCC(=O)NC5=O)C7=O)C4)C3)cc2F)N1CC(F)F (stereo partly drawn) [E 83, 6-(2-(6-(4-((1R,3R)-2-(2,2-difluoroethyl)-3-methyl-2,3,4,9-tetrahydro-1H-pyrido[3,4-b]indol-1-yl)-3,5-difluorophenyl)-2,6-diazaspiro[3.4]octan-2-yl)-2-oxoethyl)-2-(2,6-dioxopiperidin-3-yl)-6,7-dihydropyrrolo[3,4-f]isoindole-1,3(2H,5H)-dione] |  | < 0.01 µM
O=C1CCC(N2C(=O)c3cc4c(cc3C2=O)CN(C2CC(C(=O)N3CCCC(Oc5ccc([C@@H]6c7ccc(O)cc7CC[C@@H]6c6ccccc6)cc5)C3)C2)C4)C(=O)N1 (mixture of isomers) [E 22, Rac-2-(2,6-dioxopiperidin-3-yl)-6-(3-(3-(4-((1R,2S)-6-hydroxy-2-phenyl-1,2,3,4-tetrahydronaphthalen-1-yl)phenoxy)piperidine-1-carbonyl)cyclobutyl)-6,7-dihydropyrrolo[3,4-f]isoindole-1,3(2H,5H)-dione] |  | > 0.1 µM
O=C1CCC(N2C(=O)c3cc4c(cc3C2=O)CN(CC2CCN(CC3CN(c5ccc([C@@H]6c7ccc(O)cc7CC[C@@H]6c6ccccc6)cc5)C3)CC2)C4)C(=O)N1 (stereo partly drawn) [E244, 2-(2,6-dioxopiperidin-3-yl)-6-((1-((1-(4-((1R,2S)-6-hydroxy-2-phenyl-1,2,3,4-tetrahydronaphthalen-1-yl)phenyl)azetidin-3-yl)methyl)piperidin-4-yl)methyl)-6,7-dihydropyrrolo[3,4-f]isoindole-1,3(2H,5H)-dione] |  | 0.01 to 0.1 µM
O=C1CCC(N2C(=O)c3cc4c(cc3C2=O)CN(C(=O)CN2CCC3(CC2)CCN(c2ccc(C(=C(CCCl)c5ccccc5)c5ccc(O)cc5)cc2)C3)C4)C(=O)N1 (stereo not shown) [E 191, 6-(2-(2-(4-(4-chloro-1-(4-hydroxyphenyl)-2-phenylbut-1-en-1-yl)phenyl)-2,8-diazaspiro[4.5]decan-8-yl)acetyl)-2-(2,6-dioxopiperidin-3-yl)-6,7-dihydropyrrolo[3,4-f]isoindole-1,3(2H,5H)-dione] |  | 0.01 to 0.1 µM
C[C@@H]1Cc2c([nH]c3ccccc23)[C@@H](c2c(F)cc(N3CCC(CN4CCC(N5Cc6cc7c(cc6C5)C(=O)N(C5CCC(=O)NC5=O)C7=O)CC4)CC3)cc2F)N1CC(F)F (stereo partly drawn) [E 51, 6-(1-((1-(4-((1R,3R)-2-(2,2-difluoroethyl)-3-methyl-2,3,4,9-tetrahydro-1H-pyrido[3,4-b]indol-1-yl)-3,5-difluorophenyl)piperidin-4-yl)methyl)piperidin-4-yl)-2-(2,6-dioxopiperidin-3-yl)-6,7-dihydropyrrolo[3,4-f]isoindole-1,3(2H,5H)-dione] |  | 0.01 to 0.1 µM
CN(c1ccc([C@@H]2c3ccc(O)cc3CC[C@@H]2c2ccccc2)cc1)C1CN(C[C@H]2CC[C@H](C(=O)N3Cc4cc5c(cc4C3)C(=O)N(C3CCC(=O)NC3=O)C5=O)CC2)C1 (stereo partly drawn) [E 398, 2-(2,6-dioxopiperidin-3-yl)-6-((1R,4r)-4-((3-((4-((1R,2S)-6-hydroxy-2-phenyl-1,2,3,4-tetrahydronaphthalen-1-yl)phenyl)(methyl)amino)azetidin-1-yl)methyl)cyclohexane-1-carbonyl)-6,7-dihydropyrrolo[3,4-f]isoindole-1,3(2H,5H)-dione] | > 0.1 µM | 
O=C1CCC(N2C(=O)c3cc4c(cc3C2=O)CN(CC(=O)N2CCC3(CC2)CCN(c2ccc([C@@H]5c6ccc(O)cc6CC[C@@H]5c5ccccc5)cc2)CC3)CC4)C(=O)N1 (mixture of isomers) [E 172, rac-2-(2,6-dioxopiperidin-3-yl)-6-(2-(9-(4-((1R,2S)-6-hydroxy-2-phenyl-1,2,3,4-tetrahydronaphthalen-1-yl)phenyl)-3,9-diazaspiro[5.5]undecan-3-yl)-2-oxoethyl)-5,6,7,8-tetrahydro-1H-pyrrolo[3,4-g]isoquinoline-1,3(2H)-dione] |  | 0.01 to 0.1 µM
